Test: Vapour pressure of the pure substance
Assay type: physicochemical
Details: about 20° C.
Method: “Volatility” according to the present invention is considered to be present for substances having a liquid or sublimation vapour pressure of the pure substance at 20° C. of at least about 0.013 Pascal (0.0001 mmHg), or at least about 0.1 Pascal. Vapour pressure can be measured according to ASTM Standard E1194-01 of November 2001. In certain embodiments according to the present invention, an upper limit for the vapour pressure of pure material should be less than about 67 Pascal (0.5 mmHg), or less than about 13 Pascal (0.1 mmHg) each at 20° C. Evaluation of whether a composition does vaporize sufficiently can be made by a panel of at least five people or by vapour head evaluation, e.g. with gas chromatography.

vapour pressure: about 0.53 Pascal
vapour pressure (equivalent of the Pascal value): 0.004 mmHg
Compound: CNC(=O)C(C)(C(C)C)C(C)C [WS-23, 2-Isopropyl-N,2,3-trimethylbutyramide]
